# Several values for one entry are separate records, joined by “and”; a condition that tells them apart may be missing. Identical values can stand only once. Results filed as inconclusive are left out.
# Tested on: MX-1 breast xenograft, intrarenal, nude mice, tumor weight
# Assay: NCI In Vivo Anticancer Drug Screen. Data for tumor model Human Mammary Carcinoma MX-1 Xenograft (intrarenal inoculation) in NU/NU BALB/C (nude) mice
# Conditions: endpoint: mean tumor weight change, higher = larger tumour
# Outline: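 Mice w/ transplanted tumors, drug vs vehicle; endpoint survival or tumor size; value = T/C.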
compound,measurement,setting,value
COC(=O)[C@@]12OC[C@]34[C@H]([C@@H](O)[C@@H]1O)[C@@]1(C)CC(=O)C(OC(=O)CC(=O)OC5=C(C)[C@@H]6C[C@H]7OC(=O)[C@H](OC(=O)/C=C(\C)C(C)C)[C@H]8[C@]9(C(=O)OC)OC[C@]78[C@H]([C@@H](O)[C@@H]9O)[C@@]6(C)CC5=O)=C(C)[C@@H]1C[C@H]3OC(=O)[C@H](OC(=O)/C=C(\C)C(C)C)[C@@H]24,T/C,"dose: 3.12 mg/kg/injection, schedule: Q04DX003 (ip), vehicle: saline + Tween-80 + alcohol",86 % of control
same,T/C,"dose: 6.25 mg/kg/injection, schedule: Q04DX003 (ip), vehicle: saline + Tween-80 + alcohol",63 % of control
NC(Cc1ccc(N(CCCl)CCCl)cc1)C(=O)O (stereo unspecified),T/C,"dose: 10.0 mg/kg/injection, schedule: Q04DX003 (sc), vehicle: Klucel (hydroxypropylcellulose) (HPC)",-85 % of control and -98 % of control
same,T/C,"dose: 20.0 mg/kg/injection, schedule: Q04DX003 (sc), vehicle: Klucel (hydroxypropylcellulose) (HPC)",-90 % of control
Clc1cccc(Cl)c1C(Nc1nncs1)Nc1nncs1,T/C,"dose: 100.0 mg/kg/injection, schedule: Q04DX003 (ip), vehicle: saline with Tween-80",94 % of control
same,T/C,"dose: 200.0 mg/kg/injection, schedule: Q04DX003 (ip), vehicle: saline with Tween-80",73 % of control
same,T/C,"dose: 400.0 mg/kg/injection, schedule: Q04DX003 (ip), vehicle: saline with Tween-80",44 % of control
O=S(=O)(CCl)OCCCl,T/C,"dose: 25.0 mg/kg/injection, schedule: Q04DX003 (sc), vehicle: saline with Tween-80",90 % of control
same,T/C,"dose: 50.0 mg/kg/injection, schedule: Q04DX003 (sc), vehicle: saline with Tween-80",113 % of control
same,T/C,"dose: 100.0 mg/kg/injection, schedule: Q04DX003 (sc), vehicle: saline with Tween-80",95 % of control
CO[C@@]12[C@H](COC(N)=O)C3=C(C(=O)C(C)=C(N)C3=O)N1C[C@@H]1N[C@@H]12,T/C,"dose: 1.5 mg/kg/injection, schedule: Q04DX003 (sc), vehicle: saline",9 % of control and 14 % of control
same,T/C,"dose: 6.0 mg/kg/injection, schedule: Q04DX003 (ip), vehicle: suspension in saline",-100 % of control
same,T/C,"dose: 8.0 mg/kg/injection, schedule: Q04DX003 (ip), vehicle: suspension in saline",-100 % of control
CN(C)CCCOc1nc2c(c(=O)n(C)c(=O)n2C)n1C (tested in a mixture with another compound),T/C,"dose: 37.5 mg/kg/injection, schedule: Q04DX003 (ip), vehicle: Klucel (hydroxypropylcellulose) (HPC)",75 % of control
same,T/C,"dose: 75.0 mg/kg/injection, schedule: Q04DX003 (ip), vehicle: Klucel (hydroxypropylcellulose) (HPC)",63 % of control and 65 % of control
same,T/C,"dose: 150.0 mg/kg/injection, schedule: Q04DX003 (ip), vehicle: Klucel (hydroxypropylcellulose) (HPC)",58 % of control and 62 % of control
same,T/C,"dose: 300.0 mg/kg/injection, schedule: Q04DX003 (ip), vehicle: Klucel (hydroxypropylcellulose) (HPC)",19 % of control and 20 % of control
CC(/C=C/C=C/C=C/C=C/C=C/C(O)=C1/C(=O)C(CCC(=O)O)N(C)C1=O)=C\C(C)C(OC1CC(O)C(O)C(C)O1)C(C)C (stereo unspecified),T/C,"dose: 8.0 mg/kg/injection, schedule: Q04DX003 (ip), vehicle: water",62 % of control
same,T/C,"dose: 15.88 mg/kg/injection, schedule: Q04DX003 (ip), vehicle: water",115 % of control
same,T/C,"dose: 16.0 mg/kg/injection, schedule: Q04DX003 (ip), vehicle: water",57 % of control
same,T/C,"dose: 31.75 mg/kg/injection, schedule: Q04DX003 (ip), vehicle: water",97 % of control
same,T/C,"dose: 32.0 mg/kg/injection, schedule: Q04DX003 (ip), vehicle: water",95 % of control
same,T/C,"dose: 62.5 mg/kg/injection, schedule: Q04DX003 (ip), vehicle: water",63 % of control
same,T/C,"dose: 64.0 mg/kg/injection, schedule: Q04DX003 (ip), vehicle: water",58 % of control
same,T/C,"dose: 125.0 mg/kg/injection, schedule: Q04DX003 (ip), vehicle: water",50 % of control
Cn1nnc2c(C(N)=O)ncn2c1=O,T/C,"dose: 75.0 mg/kg/injection, schedule: Q04DX003 (ip), vehicle: suspension in saline",68 % of control
same,T/C,"dose: 150.0 mg/kg/injection, schedule: Q04DX003 (ip), vehicle: saline",24 % of control
same,T/C,"dose: 150.0 mg/kg/injection, schedule: Q04DX003 (ip), vehicle: suspension in saline",15 % of control
same,T/C,"dose: 300.0 mg/kg/injection, schedule: Q04DX003 (ip), vehicle: saline",-68 % of control
same,T/C,"dose: 300.0 mg/kg/injection, schedule: Q04DX003 (ip), vehicle: suspension in saline",-100 % of control
C=C(OC)C(Nc1cc(OC)c(OC)cc1C(=O)OC1CC(O[C@@H]2C(=O)C(NC(=O)OC)=C3/C(=C\CSSSC)[C@]2(O)C#C/C=C\C#C[C@@H]3OC2OC(C)C(NOC3CC(O)C(SC)C(C)O3)C(O)C2OC2CC(OC)C(NCCC)CO2)OC(C)C1O)OC (stereo partly specified),T/C,"dose: 0.31 micrograms/kg/injection, schedule: Q04DX003 (ip), vehicle: alcohol",71 % of control
same,T/C,"dose: 0.32 micrograms/kg/injection, schedule: Q04DX003 (ip), vehicle: saline + alcohol",39 % of control
same,T/C,"dose: 0.62 micrograms/kg/injection, schedule: Q04DX003 (ip), vehicle: alcohol",68 % of control
same,T/C,"dose: 0.64 micrograms/kg/injection, schedule: Q04DX003 (ip), vehicle: saline + alcohol",17 % of control
same,T/C,"dose: 1.25 micrograms/kg/injection, schedule: Q04DX003 (ip), vehicle: alcohol",22 % of control
same,T/C,"dose: 1.28 micrograms/kg/injection, schedule: Q04DX003 (ip), vehicle: saline + alcohol",27 % of control
same,T/C,"dose: 2.5 micrograms/kg/injection, schedule: Q04DX003 (ip), vehicle: alcohol",26 % of control
same,T/C,"dose: 2.56 micrograms/kg/injection, schedule: Q04DX003 (ip), vehicle: saline + alcohol",13 % of control
same,T/C,"dose: 5.0 micrograms/kg/injection, schedule: Q04DX003 (ip), vehicle: alcohol",12 % of control
CC(C)(C)c1ccc(C(=O)N2CCOC23CCCCC3)cc1,T/C,"dose: 150.0 mg/kg/injection, schedule: Q04DX003 (ip), vehicle: saline with Tween-80",69 % of control and 87 % of control
same,T/C,"dose: 300.0 mg/kg/injection, schedule: Q04DX003 (ip), vehicle: saline with Tween-80",96 % of control and 112 % of control
same,T/C,"dose: 600.0 mg/kg/injection, schedule: Q04DX003 (ip), vehicle: saline with Tween-80",80 % of control and 88 % of control
same,T/C,"dose: 1200.0 mg/kg/injection, schedule: Q04DX003 (ip), vehicle: saline with Tween-80",95 % of control and 106 % of control
O=CNCO,T/C,"dose: 300.0 mg/kg/injection, schedule: Q01DX010 (sc), vehicle: water",68 % of control
same,T/C,"dose: 600.0 mg/kg/injection, schedule: Q01DX010 (sc), vehicle: water",39 % of control
same,T/C,"dose: 1200.0 mg/kg/injection, schedule: Q01DX010 (sc), vehicle: water",11 % of control
same,T/C,"dose: 2000.0 mg/kg/injection, schedule: Q01DX010 (sc), vehicle: water",8 % of control
COc1cc(C2c3cc4c(cc3[C@@H](OC3OC5CO[C@@H](C)OC5C(O)C3O)[C@H]3COC(=O)C23)OCO4)cc(OC)c1OC (stereo partly specified),T/C,"dose: 25.0 mg/kg/injection, schedule: Q04DX003 (ip), vehicle: saline",88 % of control
same,T/C,"dose: 50.0 mg/kg/injection, schedule: Q04DX003 (ip), vehicle: saline",84 % of control
same,T/C,"dose: 100.0 mg/kg/injection, schedule: Q04DX003 (ip), vehicle: saline",55 % of control
same,T/C,"dose: 200.0 mg/kg/injection, schedule: Q04DX003 (ip), vehicle: saline",61 % of control
same,T/C,"dose: 400.0 mg/kg/injection, schedule: Q04DX003 (ip), vehicle: saline",32 % of control
COc1cccc2c1C(=O)c1c(O)c3c(c(O)c1C2=O)C[C@@](O)(/C(C)=N\O)C[C@@H]3OC1CC(N)C(O)C(C)O1 (stereo partly specified),T/C,"dose: 12.5 mg/kg/injection, schedule: Q04DX003 (sc), vehicle: saline",64 % of control
same,T/C,"dose: 25.0 mg/kg/injection, schedule: Q04DX003 (sc), vehicle: saline",58 % of control
same,T/C,"dose: 50.0 mg/kg/injection, schedule: Q04DX003 (sc), vehicle: saline",23 % of control
C[n+]1c(/C=N/NC(N)=S)ccc2ccccc21,T/C,"dose: 300.0 mg/kg/injection, schedule: Q04DX003 (sc), vehicle: saline with Tween-80",78 % of control
O=C1C=C2C(=CCOC2O)O1 (stereo unspecified),T/C,"dose: 1.0 mg/kg/injection, schedule: Q04DX003 (sc), vehicle: Klucel (hydroxypropylcellulose) (HPC)",87 % of control
same,T/C,"dose: 2.0 mg/kg/injection, schedule: Q04DX003 (sc), vehicle: Klucel (hydroxypropylcellulose) (HPC)",79 % of control
same,T/C,"dose: 4.0 mg/kg/injection, schedule: Q04DX003 (sc), vehicle: Klucel (hydroxypropylcellulose) (HPC)",59 % of control
CNC=O,T/C,"dose: 100.0 mg/kg/injection, schedule: Q01DX010 (sc), vehicle: saline",47 % of control
same,T/C,"dose: 200.0 mg/kg/injection, schedule: Q01DX010 (sc), vehicle: saline",10 % of control
CC(=O)OCC(=O)[C@@]12OC(C)(C)O[C@@H]1C[C@H]1[C@@H]3CC(C=O)=C4C=C(OCCCl)CC[C@]4(C)[C@@]3(F)[C@@H](O)C[C@@]12C,T/C,"dose: 25.0 mg/kg/injection, schedule: Q04DX003 (sc), vehicle: Klucel (hydroxypropylcellulose) (HPC)",93 % of control
same,T/C,"dose: 50.0 mg/kg/injection, schedule: Q04DX003 (sc), vehicle: Klucel (hydroxypropylcellulose) (HPC)",81 % of control
same,T/C,"dose: 100.0 mg/kg/injection, schedule: Q04DX003 (sc), vehicle: Klucel (hydroxypropylcellulose) (HPC)",71 % of control
same,T/C,"dose: 200.0 mg/kg/injection, schedule: Q04DX003 (sc), vehicle: Klucel (hydroxypropylcellulose) (HPC)",78 % of control
COc1cccc2c1C(=O)c1c(O)c3c(c(O)c1C2=O)C[C@](O)(C(=O)CO)CC3OC1CC(N)C(OC2CCCCO2)C(C)O1 (stereo partly specified),T/C,"dose: 7.5 mg/kg/injection, schedule: Q04DX003 (ip), vehicle: water",21 % of control
